PubChem BioAssay (NCI)
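A five-concentration, 48-hour dose response in 96-well plates underlies each endpoint, interpolated linearly between surrounding concentrations. TGI marks complete inhibition of growth.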

How the values were obtained:
Test in all cases: NCI tumour cell line growth inhibition, 48 h
[1] = system: COLO 205 colon
[2] = system: SR leukemia
[3] = system: SF-295 CNS
[4] = system: LOX IMVI melanoma
[5] = system: HS 578T breast
[6] = system: NCI/ADR-RES ovarian
[7] = system: RPMI-8226 leukemia

Question: What does the source list for `Cc1cc(-c2cc(C(C)(C)C)c(O)c(C(C)(C)C)c2)c(C)cc1-c1cc(C(C)(C)C)c(O)c(C(C)(C)C)c1`?
Answer: TGI [1]: > 100 µM; TGI [2]: > 100 µM; TGI [3]: > 100 µM; TGI [4]: > 100 µM; TGI [5]: > 100 µM; TGI [6]: > 100 µM; TGI [7]: > 100 µM

Question: With `C=CN(C=C)C(=O)Cn1cc(-c2ccccc2)nn1` as the compound, how does the TGI [1] read?
Answer: > 100 µM

Question: What about the TGI [2] of the same compound?
Answer: > 100 µM

Question: And the TGI [3]?
Answer: > 100 µM

Question: And the TGI [4]?
Answer: > 100 µM

Question: And the TGI [6]?
Answer: > 100 µM

Question: What about the TGI [7] of the same compound?
Answer: > 100 µM

Question: How did the TGI [1] turn out when `COc1ccc(-c2cc3cc(Cl)cc(Cl)c3oc2=O)cc1OC` was run?
Answer: > 100 µM

Question: And the TGI [2]?
Answer: > 100 µM

Question: And the TGI [3]?
Answer: > 100 µM

Question: What about the TGI [4] of the same compound?
Answer: > 100 µM

Question: And the TGI [5]?
Answer: 76.1 µM

Question: What about the TGI [6] of the same compound?
Answer: > 100 µM

Question: What about the TGI [7] of the same compound?
Answer: > 100 µM

Question: What does the source list for `CCOC(=O)[C@@H](Cc1ccc(CCl)cc1)NC(C)=O`?
Answer: TGI [1]: 43.9 µM; TGI [2]: > 100 µM; TGI [3]: > 100 µM; TGI [4]: 37 µM; TGI [5]: 60.8 µM; TGI [6]: 43.9 µM; TGI [7]: 88.4 µM

Question: Which TGI [1] does the source give for `CCOC(=O)c1csc(NC(=O)CCN2CCCC2)n1` here?
Answer: > 100 µM

Question: What about the TGI [2] of the same compound?
Answer: > 100 µM

Question: What about the TGI [3] of the same compound?
Answer: > 100 µM

Question: What about the TGI [4] of the same compound?
Answer: > 100 µM

Question: And the TGI [6]?
Answer: > 100 µM

Question: What about the TGI [7] of the same compound?
Answer: > 100 µM

Question: Which results are given for `CN(C)CCNCCCNc1c2ccccc2nc2cccc([N+](=O)[O-])c12`?
Answer: TGI [1]: 0.0245 µM; TGI [3]: 0.0741 µM; TGI [4]: < 0.0253 µM; TGI [5]: 0.384 µM; TGI [7]: < 0.0226 µM

Question: `C/C(=C\CSCC(N)C(=O)O)CC/C=C(\C)CNc1ccccc1` (stereo not given) was tested. Which TGI [1] did it give?
Answer: > 100 µM

Question: And the TGI [2]?
Answer: > 100 µM

Question: What about the TGI [3] of the same compound?
Answer: > 100 µM

Question: What about the TGI [4] of the same compound?
Answer: > 100 µM

Question: What about the TGI [5] of the same compound?
Answer: > 100 µM

Question: What about the TGI [6] of the same compound?
Answer: > 100 µM

Question: And the TGI [7]?
Answer: > 100 µM

Question: Which results are given for `CC(C)=CCC[C@@H](C)C1=C(Nc2ccccc2F)C(O)=C(C)C(=O)C1=O`?
Answer: TGI [1]: 12.4 µM; TGI [2]: > 100 µM; TGI [3]: > 31.5 µM; TGI [4]: > 100 µM; TGI [5]: 57.1 µM; TGI [6]: > 23.8 µM; TGI [7]: > 100 µM

Question: For `O=C1c2cc3c(cc2CC12Cc1ccc4c(c1C2=O)CCC4)CCC3` (stereo not given), which TGI [2] is on record?
Answer: > 100 µM

Question: What about the TGI [3] of the same compound?
Answer: > 100 µM

Question: What about the TGI [4] of the same compound?
Answer: > 100 µM

Question: And the TGI [5]?
Answer: > 100 µM

Question: And the TGI [6]?
Answer: > 100 µM

Question: What about the TGI [7] of the same compound?
Answer: > 100 µM

Question: How did the TGI [1] turn out when `COc1cc2c(c(OC)c1)[C@H](C)N(Cc1ccccc1)C(C)C2` (stereo not given in full) was run?
Answer: > 100 µM

Question: And the TGI [2]?
Answer: > 100 µM

Question: What about the TGI [3] of the same compound?
Answer: > 100 µM

Question: What about the TGI [4] of the same compound?
Answer: > 100 µM

Question: And the TGI [5]?
Answer: > 100 µM

Question: And the TGI [7]?
Answer: > 100 µM

Question: What does the source list for `COc1ccc(C2c3cc4c(cc3OC(Nc3ccccc3)C2C)OCO4)cc1` (stereo not given)?
Answer: TGI [1]: > 100 µM; TGI [2]: 9.18 µM; TGI [3]: > 100 µM; TGI [4]: > 100 µM; TGI [5]: > 100 µM; TGI [7]: > 100 µM

Question: With `CC(C)=CCc1c(O)cc2oc(-c3ccc(O)cc3O)cc(=O)c2c1O` as the compound, how does the TGI [1] read?
Answer: 62.6 µM

Question: And the TGI [2]?
Answer: > 65.6 µM

Question: And the TGI [3]?
Answer: > 100 µM

Question: What about the TGI [4] of the same compound?
Answer: 59.1 µM

Question: And the TGI [5]?
Answer: > 94 µM

Question: And the TGI [6]?
Answer: > 94.4 µM

Question: And the TGI [7]?
Answer: 41.4 µM

Question: Which results are given for `N#C/C(C(=O)NCc1ccccc1)=C(/N)N1CCCC1`?
Answer: TGI [1]: > 100 µM; TGI [2]: > 100 µM; TGI [3]: > 100 µM; TGI [4]: > 100 µM; TGI [5]: > 100 µM; TGI [6]: > 100 µM; TGI [7]: > 100 µM

Question: For `CC(C)(C)/C(O)=C\c1nc2cc(F)c(F)cc2[nH]c1=O`, which TGI [1] is on record?
Answer: > 100 µM

Question: And the TGI [2]?
Answer: > 100 µM

Question: What about the TGI [3] of the same compound?
Answer: > 100 µM

Question: What about the TGI [4] of the same compound?
Answer: > 100 µM

Question: What about the TGI [5] of the same compound?
Answer: > 100 µM

Question: And the TGI [6]?
Answer: > 100 µM
